Test: antioxidant activity in β-carotene-linoleate system (bleaching of β-carotene)
Assay type: biochemical
Conditions: for bleaching time of β-carotene: different concentrations, controls (no additive) decolorized within 120 min; for antioxidant activity: 120 min incubation at 50° C.
Description: In another embodiment of the present invention, evaluation of the antioxidant activity of flavidin has been carried out employing the procedure of Hiddgi et. al. (Phytochem, 37, 1585, 1994) with minor modifications said method comprises the following steps: […]
i) preparing assay reagent of β-carotene in chloroform by mixing linoleic acid and 200 mg of Tween 40 (polyoxyethylene sorbitan monopalmitate), ii) warming polyoxyethylene sorbitan monopalmitate (Tween 40) at a temperature of about 50° C. in a water bath, iii) removing chloroform from assay reagent at a temperature of about 40° C. under vacuum using a rotary evaporator, iv) diluting the resulting solution with triple distilled water and mixing the resulting emulsion well for one minute, v) further diluting the resulting emulsion with oxygenated water, vi) transferring aliquots of the reagent as in step (v) into tubes containing 0.2 ml of desired amount of antioxidant in ethanol, vii) keeping a control of 0.2 ml of ethanol and 4 ml of reagent as prepared in step (v). viii) immediately taking optical density of all sample (t=0) and also taking the O.D at 15 min. interval for 2 hr. (t=120), ix) incubating the tubes in water bath at a temperature of about 50° C. between each measurement taken, and x) measuring the color till the color of β-carotene disappears.
The procedure of Hiddgo et al., (Phytochemistry, 37, 1585, 1994) was followed for testing of antioxidant activity of the flavidin with minor modification. The assay reagent was prepared as follows: 0.2 mg of β-carotene in 0.5 ml of chloroform was added to 20 mg of linoleic acid and 200 mg of Tween 40 (polyoxyethylene sorbitan monopalmitate) were mixed. Tween 40 was warmed in a water bath at 50° C. before use. The chloroform was removed at 40° C. under vacuum using a rotary evaporator. The resulting solution was immediately diluted with 10 ml of triple-distilled water and the emulsion was mixed well for 1 min. The emulsion was further diluted with 40 ml oxygenated water. Four ml aliquots of this reagent were transferred into different tubes containing 0.2 ml of the desired amount of antioxidant in ethanol. A control consisting of 0.2 ml of ethanol and 4 ml of emulsion was prepared. Optical density of all samples were taken immediately (t=0) and at 15 min intervals for 2 h (t=120). The tubes were placed in a water bath at 50° C. between measurements. All determinations were preformed in duplicate. Measurement of color was recorded until the color of β-carotene disappears.
The antioxidant activity (AA) of the isolated compound was evaluated in terms of bleaching the β-carotene using the formula of Hiddgo et al., (Phytochemistry, 37, 1585, 1994). AA=100[1−(Ao−At)/(A^oo−A^ot)] where Ao and A^o are the absorbance measured at the beginning of the incubation for flavidin and the control, respectively, and At and A^ot are the absorbance measured in the presence and absence of the flavidin after incubation for 120 min.

SMILES | bleaching time of β-carotene | antioxidant activity (10 ppm) [%] | antioxidant activity (25 ppm) [%] | antioxidant activity (50 ppm, maximum activity) [%]
COc1ccc(O)c(C(C)(C)C)c1 [BHA, butylated hydroxy anisole, reference compound] | enhanced |  |  | 
Oc1cc2c3c(c1)COc1cc(O)cc(c1-3)CC2 [flavidin, 2,7-dihydroxy 9,10-dihydrophenanthro-4,5 bcd-pyran] | enhanced | 68.5 | 79 | 90.2

— patent US6503552B1, “Adding flavidin to a composition as an anti-oxidant” (Council of Scientific and Industrial Research, priority 2000, dated 2003)
